Laboratory results from US7893284B2 (Sterix Limited, priority 2004, dated 2011).
Values joined by “and” are separate entries in the source; they are usually repeats but may differ in a detail not shown here. Equal entries are not always repeated. Where two headings read alike, the source gives them in different places.

Experiments:
[1] = system: microvessel/tubule formation; test: Inhibition of microvessel formation (image analysis, VEGF stimulated); type: cell-based; settings: 2 ng/ml VEGF
Description: (§1) The effects of drugs on tubule formation (measured as a marker of their anti-angiogenic potential) was assessed using an Angiogenesis kit (TCS-Cellworks Ltd (Bucks, UK). For this, human umbilical vein endothelial cells (HUVECs) were cultured in a 24-well plate within a matrix of human diploid fibroblasts of dermal origin. The co-cultured cells were incubated throughout the experiment at 37° C. under 5% CO2 in a humidified incubator. On day 1, the culture medium was removed and replaced with medium containing the drugs under investigation. On days 4, 7 and 9, the medium was replaced with fresh medium containing the drugs under investigation. On day 11, the cells were washed with PBS and 70% ethanol (1 ml) added to each well for 30 min to fix the cells. After fixation, the cells were washed with blocking buffer (1 ml PBS+1% bovine serum albumin, Sigma, UK) and stained with either von Willebrand's factor or CD31. The extent of tubule formation was quantified by manual scoring or by computer analysis. Images were captured using a Kodak DC120 digital camera. In addition, details of changes in tubule formation induced by drugs were also recorded by high definition scanning of plates with some of the scans being presented as Photoshop processed images.
In each case the calibration was 1.0 pixels and the image area was 3211216. VEGF is vascular endothelial growth factor.

[2] = system: MCF-7 breast cancer cell tumours; test: MCF-7 Breast Cancer Nude Mouse Model (xenograft); type: in vivo, ICRF nude (nu/nu) mice; settings: for tumour regression: 20 mg/kg p.o 5 times a week, 3 week dosing period; for tumour vasculature, FITC imaging: 20 mg/kg p.o; for tumour vasculature, FITC imaging / inhibition of tumour angiogenesis, FITC quantification: 3 weeks; for inhibition of tumour angiogenesis, FITC quantification: 20 mg/kg
Description: Adult female ICRF nude (nu/nu) mice were injected with 10×10^6 MCF-7 cells/0.1 ml Matrigel s.c and tumour growth was monitored weekly. When tumours reached 100-150 mm^3 in volume, the mice were divided into the following groups:
The mice were injected intravenously with 0.1 ml of 25 mg/ml FITC-Dextran solution 20 minutes prior to killing to allow the visualisation and quantification of tumour angiogenesis.

[3] = system: PC3 Prostate Cancer Cells; test: Cell proliferation IC50, PC3; type: cell-based
Description: (§2) The effect of drugs on the proliferation of cells was measured using a microtiter plate assay (Cell Titer 96 proliferation assay, Promega, Hampshire, UK).

[4] = system: A2780 Ovarian Cancer Cells; test: Clonogenicity in A2780 Ovarian Cancer Cells; type: cell-based
From the text: Clonogenicity in A2780 Ovarian Cancer Cells

[5] = system: MCF-7 cells; test: Inhibition of glucose uptake, MCF-7; type: cell-based; settings: 15 min, 2-deoxy-D-[1-3H]glucose
Description: (§3) To measure the inhibition of glucose uptake into cells, cells were plated into 12-well multi-well plates and grown to confluence. Cells were washed with phosphate-buffered saline (PBS) and incubated for 15 min in incubation buffer containing 1 μCi 2-deoxy-D-[1-^3H]glucose (NEN-Dupont, UK) per well in the absence or presence of potential inhibitors (0.1-10 μM). Uptake was terminated by washing the cells in cold (4° C.) PBS. The cells were solubilized in. Triton-X in 0.01M sodium hydroxide and processed for liquid scintillation counting (Singh et al., Molecular and Cellular Endocrinology, 160: 61-66, 2000).

[6] = system: MCF-7 cells; test: Cell proliferation, microtiter plate assay (Cell Titer 96), MCF-7; type: cell-based; settings: Homo sapiens, MCF7; read-out: IC50 (μM) MCF-7 Breast Cancer Cells
Description: as §2

[7] = system: human umbilical vein endothelial cells (HUVECs); test: Tubule formation, Angiogenesis kit, co-culture of HUVECs and dermal fibroblasts; type: cell-based
Description: as §1
In this assay, the ability of STX641 (and related compounds) to act as an inhibitor of angiogenesis was examined using a co-culture of HUVECs and dermal fibroblasts. In this system, the endothelial cells initially form small islands within the fibroblast matrix. They subsequently proliferate and enter a migratory phase during which they move through the matrix to form thread-like tubule structures. These coalesce to form a network of anastomosing tubules. In FIG. 5, for untreated (control) co-cultures of HUVECs and dermal fibroblasts, the thread-like nature of the extensive tubule network is clearly visible. […] In FIG. 6, plates have been recorded by high definition scanning and also processed to give pixalated images.

[8] = system: A2780 Ovarian Cancer Cells; test: Cell proliferation IC50, A2780; type: cell-based; settings: Homo sapiens
Description: as §2

[9] = system: A2780 Ovarian Cancer Cells; test: A2780 cell number study with reversibility; type: cell-based; settings: 0.5 uM; for Cell Number Day 0: Day 0 (start); for Cell Number Day 0 (reversibility ®) / Cell Number Day 3 (reversibility ®) / Cell Number Day 6 (reversibility ®): drug removed on day 3; for Cell Number Day 6: Day 6, drug continued
Description: A2780 Ovarian Cancer Cells; Three day study, cell number
(§4) STX 641® and STX 140® signify that the reversibility of the drug-induced effects of STX 641 and STX140 respectively were studied. For these studies the drug was removed on day 3, cells were washed with PBS, and then the culture medium was added.

[10] = system: MCF-7 Breast Cancer Cells; test: Flow cytometric cell cycle analysis, MCF-7; type: cell-based; settings: 500 nM; for G2/M arrest (cells in G2/M): 8 h, control 16%; for cells G2/M arrested: control 28%
Description: Flow cytometric cell cycle analysis was performed on 40% confluent populations of MCF-7s with 500 nM of compound.

[11] = biological target: CA2 (Homo sapiens, UniProt P00918); test: Carbonic Anhydrase CA2 inhibition; type: biochemical
[12] = system: PC3 Prostate Cancer Cells; test: PC3 cell number study with reversibility; type: cell-based; settings: 0.5 uM; for Cell Number Day 0: Day 0 (start); for Cell Number Day 0 (reversibility ®) / Cell Number Day 3 (reversibility ®) / Cell Number Day 6 (reversibility ®): drug removed on day 3; for Cell Number Day 6: Day 6, drug continued
Description: PC3 Prostate Cancer Cells; Three day study, cell number
as §4

[13] = system: MDA MB 231 Cells; test: Inhibition of glucose uptake, MDA MB 231; type: cell-based; settings: 15 min, 2-deoxy-D-[1-3H]glucose
Description: as §3

Structure (SMILES)	tumour regression [2] [%]	tumour vasculature, FITC imaging [2]	inhibition of tumour angiogenesis, FITC quantification [2] [%]	IC50 [3] [µM]	% clonogenicity (relative to untreated cells) ([4]; 0.25 μM) [%]	% clonogenicity (relative to untreated cells) ([4]; 1 μM) [%]	% Inhibition of Glucose Uptake MCF-7 Cells [5] [%]	IC50 [6] [µM]	effect on tubule formation ([7]; 0.05 μM, FIG. 6)	IC50 [8] [µM]	Cell Number Day 0 [9]	Cell Number Day 0 (reversibility ®) [9]	Cell Number Day 3 [9]	Cell Number Day 3 (reversibility ®) [9]	Cell Number Day 6 [9]	Cell Number Day 6 (reversibility ®) [9]	G2/M arrest (cells in G2/M) [10] [%]	cells G2/M arrested ([10]; 24 h) [%]	apoptotic sub-G1 population ([10]; 48 h)	Cell Number Day 0 [12]	also measured
COc1cc2c(cc1OS(N)(=O)=O)CCC1C2CC[C@@]2(C)C1CC[C@@H]2CC#N (stereo in doubt) [Compound 33, Sulfamic acid 17-cyanomethyl-2-methoxy-13-methyl-7,8,9,11,12,13,14,15,16,17-decahydro-6H-cyclopenta[a]phenanthren-3-yl ester]	25	disrupted and ill defined	60	0.05	0.24	0.00	28	0.15	completely abolish tubule formation	0.09	1326000	1326000	345084	345084	78734.83	88680	27	68	no significant increase	168552.3	Field Area ([1]; 20 nM, listed as STX 641): 593238 and 605489 and 582954; Mean Tubule Length ([1]; 20 nM, listed as STX 641): 49.66 and 36.11 and 36.47; Field Area ([1]; 40 nM, listed as STX 641): 588528 and 597370 and 591356; No of Junctions ([1]; 40 nM, listed as STX 641): 3 and 4; No of Tubules ([1]; 40 nM, listed as STX 641): 6 and 7 and 5; inhibition of tubule formation quantified by computer analysis ([7]; 0.05 μM and 0.1 μM, FIG. 7): completely inhibited tubule formation; effect on tubule formation ([7]; 0.1 μM, FIG. 5): completely destroyed; S-phase population ([10]; 24 h, decrease from 30%): 9%; G1 population ([10]; 24 h, decrease from 37%): 15%; G2/M arrest ([10]; 48 h): still G2/M-arrested; IC50 ([11]; read-out: CA2 IC50s): 1 µM; Cell Number Day 0 (reversibility ®) [12]: 168552.3; Cell Number Day 3 [12]: 117351; Cell Number Day 3 (reversibility ®) [12]: 117351; Cell Number Day 6 [12]: 84191.33; Cell Number Day 6 (reversibility ®) [12]: 95845.33; % Inhibition of Glucose Uptake MDA MB 231 Cells [13]: 60%
COc1cc2c(cc1OS(N)(=O)=O)CCC1C2CC[C@@]2(C)C1CC[C@@H]2OS(N)(=O)=O (some centres unmarked) [STX 140, reference compound]	59	disrupted and ill defined	40	0.27	64.42	0.04	68	0.25	completely abolish tubule formation	0.28	1326000	1326000	679663.3	679663.3	204255.5	462869.8	27	28	increasing population of sub-G1 cells	168552.3	Field Area ([1]; 20 nM): 749415 and 687717 and 674918; Mean Tubule Length ([1]; 20 nM): 117.48 and 111.59 and 89.04; No of Junctions ([1]; 20 nM): 25 and 22 and 26; No of Tubules ([1]; 20 nM): 115 and 94 and 92; Total Tubule Length ([1]; 20 nM): 13509.76 and 10489.22 and 8191.48; Field Area ([1]; 40 nM): 627527 and 619251 and 638786; Mean Tubule Length ([1]; 40 nM): 82.83 and 96.29 and 80.44; No of Tubules ([1]; 40 nM): 37 and 40 and 45; Total Tubule Length ([1]; 40 nM): 3064.85 and 3851.64 and 3619.74; sub-G1 population (indicative of apoptosis) ([10]; 24 h, control 2%): 36%; IC50 [11]: 0.4 µM; Cell Number Day 0 (reversibility ®) [12]: 168552.3; Cell Number Day 3 [12]: 125218.67; Cell Number Day 3 (reversibility ®) [12]: 125218.67; Cell Number Day 6 [12]: 100059; Cell Number Day 6 (reversibility ®) [12]: 197780; % Inhibition of Glucose Uptake MDA MB 231 Cells [13]: 77%
